US20200405697A1, “Antitumor Agent” (Taiho Pharmaceutical Co., Ltd, priority 2017, published 2020)

Target: T1, human RNR (histidine tagged human M1 and human M2 proteins) (Homo sapiens, UniProt P23921)
T1 construct: made in house; host or cells: Escherichia coli
T1 sequence (P23921 1-792): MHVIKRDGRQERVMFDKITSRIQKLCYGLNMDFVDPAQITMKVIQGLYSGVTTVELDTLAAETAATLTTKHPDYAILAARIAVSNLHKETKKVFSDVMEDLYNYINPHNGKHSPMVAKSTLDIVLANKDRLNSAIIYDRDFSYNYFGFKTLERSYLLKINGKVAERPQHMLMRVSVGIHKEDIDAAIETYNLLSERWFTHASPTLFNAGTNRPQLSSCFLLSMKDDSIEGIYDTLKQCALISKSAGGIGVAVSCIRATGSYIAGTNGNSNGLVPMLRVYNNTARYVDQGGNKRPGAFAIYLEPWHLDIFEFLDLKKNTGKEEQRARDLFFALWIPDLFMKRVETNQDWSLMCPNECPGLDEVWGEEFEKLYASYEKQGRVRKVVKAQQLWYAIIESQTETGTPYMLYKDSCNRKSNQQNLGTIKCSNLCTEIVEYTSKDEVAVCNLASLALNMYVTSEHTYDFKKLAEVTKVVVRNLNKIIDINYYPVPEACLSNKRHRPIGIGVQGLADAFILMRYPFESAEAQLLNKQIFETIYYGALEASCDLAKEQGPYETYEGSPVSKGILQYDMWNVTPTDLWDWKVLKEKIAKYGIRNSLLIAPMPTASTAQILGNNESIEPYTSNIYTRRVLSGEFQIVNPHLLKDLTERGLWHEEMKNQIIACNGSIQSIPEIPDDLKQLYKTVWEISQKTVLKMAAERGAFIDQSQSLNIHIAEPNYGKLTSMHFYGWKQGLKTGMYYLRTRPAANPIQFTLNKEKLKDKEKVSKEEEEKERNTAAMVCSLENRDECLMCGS
Assay: Human RNR inhibition effect (dCDP formation from CDP)
Type: biochemical
Details: 10 μM CDP, 37° C. for 30 minutes, read-out: RNR inhibitory activity IC50
Experimental: The inhibitory activity against the ribonucleotide reduction reaction (RNR inhibitory activity) of the Example compound was determined by measuring the formation of deoxycytidine diphosphate (hereinafter referred to as dCDP) from cytidine diphosphate (hereinafter referred to as CDP) by the following method.
Human M1 subunit (isoform 1, GenBank accession No: NM_001033), to which a histidine tag is fused at the amino terminus, and human M2 subunit (mutant lacking amino terminal 59 amino acids of isoform 2, GenBank accession No: NM_001034), to which a histidine tag is fused, were overexpressed in Escherichia coli and were solubilized after collection, and histidine tagged human M1 and histidine tagged human M2 proteins were purified on a nickel chelate column. A mixture of the histidine tagged human M1 and histidine tagged human M2 proteins was used as RNR in the ribonucleotide reduction reaction. [to]
First, Example compounds were serially diluted with DMSO. Next, human M1 protein and human M2 protein were added to a 0.02% aqueous albumin solution derived from fetal bovine serum, a DMSO solution of the Example compound or the control DMSO solution (final concentration of DMSO was 1%) was added, and the mixture was allowed to stand for 20 minutes. Thereafter, the reaction buffer [50 mM HEPES buffer (pH 7.2) at the final concentration, 4 mM magnesium acetate at the final concentration, 100 mM potassium chloride at the final concentration, 6 mM dithiothreitol at the final concentration, 2 mM adenosine triphosphate at the final concentration, 0.24 mM nicotinamide adenine dinucleotide phosphate at final concentration] and 10 μM CDP at the final concentration were added and incubated at 37° C. for 30 minutes to perform ribonucleotide reduction reaction. Immediately after the reaction, the reaction was stopped by heating at 100° C. for 15 minutes, followed by centrifugation at 10,000 rpm for 10 minutes. After the centrifugation, a portion (5 μL) of the resulting supernatant was analyzed with a high performance liquid chromatography (Shimadzu Corporation, Prominence) using Shim-pack XR-ODS (manufactured by Shimadzu GLC Co., 3.0×100 mm).

SMILES | IC50
Cc1c(Br)ccc(F)c1[C@@H](C)[C@H](NS(=O)(=O)c1ccc(Cl)c2c1OCCC2O)c1n[nH]c(=O)o1 (single isomer, unassigned) [Example 243A] | 70 nM
Cc1ccc(F)c([C@@H](C)[C@H](NS(=O)(=O)c2ccc(C(F)(F)F)c3c2OCCC3O)c2n[nH]c(=O)o2)c1C (single isomer, unassigned) [Example 244A] | 90 nM
Cc1ccc(F)c([C@@H](C)[C@H](NS(=O)(=O)c2ccc(C(F)(F)F)c3c2OCCC3O)c2n[nH]c(=O)o2)c1C (single isomer, unassigned) [Example 244B] | 220 nM
Cc1c(Cl)ccc(F)c1[C@@H](C)[C@H](NS(=O)(=O)c1ccc(Cl)c2c1OCCC2(C)N)c1n[nH]c(=O)o1 (single isomer, unassigned) [Example 330A] | 120 nM
Cc1cccc([C@@H](C)[C@H](NS(=O)(=O)c2ccc(Cl)cc2C(N)=O)c2n[nH]c(=O)o2)c1C [Example 3, 5-chloro-2-(N-((1S,2R)-2-(2,3-dimethylphenyl)-1-(5-oxo-4,5-dihydro-1,3,4-oxadiazol-2-yl)propyl)sulfamoyl)benzamide] | 300 nM
C[C@H](c1c(F)ccc2ccccc12)[C@H](NS(=O)(=O)c1ccc(Cl)cc1C(N)=O)c1n[nH]c(=O)o1 [Example 6, 5-chloro-2-(N-((1S,2R)-2-(2-fluoronaphthalen-1-yl)-1-(5-oxo-4,5-dihydro-1,3,4-oxadiazol-2-yl)propyl)sulfamoyl)benzamide] | 110 nM
Cc1cc(F)cc([C@@H](C)[C@H](NS(=O)(=O)c2ccc(Cl)cc2C(N)=O)c2n[nH]c(=O)o2)c1C [Example 7, 15-chloro-2-(N-((1S,2R)-2-(5-fluoro-2,3-dimethylphenyl)-1-(5-oxo-4,5-dihydro-1,3,4-oxadiazol-2-yl)propyl)sulfamoyl)benzamide] | 450 nM
C[C@H](c1cc(F)cc2ccccc12)[C@H](NS(=O)(=O)c1ccc(Cl)cc1C(N)=O)c1n[nH]c(=O)o1 [Example 9, 5-chloro-2-(N-((1S,2R)-2-(3-fluoronaphthalen-1-yl)-1-(5-oxo-4,5-dihydro-1,3,4-oxadiazol-2-yl)propyl)sulfamoyl)benzamide] | 600 nM
Cc1ccc(S(=O)(=O)N[C@H](c2n[nH]c(=O)o2)[C@H](C)c2c(F)ccc(C)c2C)c(C(N)=O)c1 [Example 10, 2-(N-((1S,2R)-2-(3-6-fluoro-2,3-dimethylphenyl)-1-(5-oxo-4,5-dihydro-1,3,4-oxadiazol-2-yl)propyl)sulfamoyl)-5-methylbenzamide] | 140 nM
Cc1ccc(S(=O)(=O)N[C@H](c2n[nH]c(=O)o2)[C@H](C)c2c(F)ccc3ccccc23)c(C(N)=O)c1 [Example 12, 2-(N-((1S,2R)-2-(2-Fluoronaphthalen-1-yl)-1-(5-oxo-4,5-dihydro-1,3,4-oxadiazol-2-yl)propyl)sulfamoyl)-5-methylbenzamide] | 170 nM
C[C@H](c1c(F)ccc2ccccc12)[C@H](NS(=O)(=O)c1ccc(Br)cc1C(N)=O)c1n[nH]c(=O)o1 [Example 15, 5-bromo-2-(N-((1S,2R)-2-(2-fluoronaphthalen-1-yl)-1-(5-oxo-4,5-dihydro-1,3,4-oxadiazol-2-yl)propyl)sulfamoyl)benzamide] | 100 nM
Cc1ccc(F)c([C@@H](C)[C@H](NS(=O)(=O)c2ccc(C3CC3)cc2C(N)=O)c2n[nH]c(=O)o2)c1C [Example 16, 5-Cyclopropyl-2-(N-((1S,2R)-2-(6-Fluoro-2,3-dimethylphenyl)-1-(5-oxo-4,5-dihydro-1,3,4-oxadiazol-2-yl)propyl)sulfamoyl)benzamide] | 130 nM
CCc1ccc(S(=O)(=O)N[C@H](c2n[nH]c(=O)o2)[C@H](C)c2c(F)ccc(C)c2C)c(C(N)=O)c1 [Example 18, 5-Ethyl-2-(N-((1S,2R)-2-(6-fluoro-2,3-dimethylphenyl)-1-(5-oxo-4,5-dihydro-1,3,4-oxadiazol-2-yl)propyl)sulfamoyl)benzamide] | 130 nM
Cc1ccc(F)c([C@@H](C)[C@H](NS(=O)(=O)c2ccc(Cl)nc2C(N)=O)c2n[nH]c(=O)o2)c1C [Example 19, 6-Chloro-3-(N-((1S,2R)-2-(6-fluoro-2,3-dimethylphenyl)-1-(5-oxo-4,5-dihydro-1,3,4-oxadiazol-2-yl)propyl)sulfamoyl)picolinamide] | 190 nM
Cc1ccc(F)c([C@@H](C)[C@H](NS(=O)(=O)c2ccc(Cl)cc2C(N)=O)c2n[nH]c(=O)o2)c1 [Example 21, 5-chloro-2-(N-((1S,2R)-2-(2-fluoro-5-methylphenyl)-1-(5-oxo-4,5-dihydro-1,3,4-oxadiazol-2-yl)propyl)sulfamoyl)benzamide] | 240 nM
Cc1c(C2CC2)ccc(F)c1[C@@H](C)[C@H](NS(=O)(=O)c1ccc(Cl)cc1C(N)=O)c1n[nH]c(=O)o1 [Example 26, 5-chloro-2-(N-((1S,2R)-2-(3-cyclopropyl-6-fluoro-2-methylphenyl)-1-(5-oxo-4,5-dihydro-1,3,4-oxadiazol-2-yl)propyl)sulfamoyl)benzamide] | 160 nM

Continued, values first:

IC50 | SMILES
100 nM | Cc1c(Br)ccc(F)c1[C@@H](C)[C@H](NS(=O)(=O)c1ccc(Cl)c2c1OCCC2O)c1n[nH]c(=O)o1 (single isomer, unassigned) [Example 243B]
460 nM | Cc1c(Cl)ccc(F)c1[C@@H](C)[C@H](NS(=O)(=O)c1ccc(Cl)c2c1OCCC2(C)N)c1n[nH]c(=O)o1 (single isomer, unassigned) [Example 330B]
380 nM | Cc1cccc([C@@H](C)[C@H](NS(=O)(=O)c2ccc(Br)cc2C(N)=O)c2n[nH]c(=O)o2)c1C [Example 4, 5-bromo-2-(N-((1S,2R)-2-(2,3-dimethylphenyl)-1-(5-oxo-4,5-dihydro-1,3,4-oxadiazol-2-yl)propyl)sulfamoyl)benzamide]
140 nM | Cc1cc(F)c(F)c([C@@H](C)[C@H](NS(=O)(=O)c2ccc(Cl)cc2C(N)=O)c2n[nH]c(=O)o2)c1C [Example 13, 5-chloro-2-(N-((1S,2R)-2-(2,3-difluoro-5,6-dimethylphenyl)-1-(5-oxo-4,5-dihydro-1,3,4-oxadiazol-2-yl)propyl)sulfamoyl)benzamide]
500 nM | Cc1ccc(F)c([C@@H](C)[C@H](NS(=O)(=O)c2ccc(Cl)cc2C(N)=O)c2n[nH]c(=O)o2)c1Cl [Example 17, 5-chloro-2-(N-((1S)-2-(2-chloro-6-fluoro-3-methylphenyl)-1-(5-oxo-4,5-dihydro-1,3,4-oxadiazol-2-yl)propyl)sulfamoyl)benzamide]
260 nM | Cc1ccc(F)c([C@@H](C)[C@H](NS(=O)(=O)c2ccccc2C(N)=O)c2n[nH]c(=O)o2)c1C [Example 20, 2-(N-((1S,2R)-2-(6-fluoro-2,3-dimethylphenyl)-1-(5-oxo-4,5-dihydro-1,3,4-oxadiazol-2-yl)propyl)sulfamoyl)benzamide]
340 nM | Cc1cccc(F)c1[C@@H](C)[C@H](NS(=O)(=O)c1ccc(Cl)cc1C(N)=O)c1n[nH]c(=O)o1 [Example 22, 5-chloro-2-(N-((1S,2R)-2-(2-fluoro-6-methylphenyl)-1-(5-oxo-4,5-dihydro-1,3,4-oxadiazol-2-yl)propyl)sulfamoyl)benzamide]
740 nM | Cc1cccc(F)c1[C@H](C)[C@H](NS(=O)(=O)c1ccc(Cl)cc1C(N)=O)c1n[nH]c(=O)o1 [Example 23, 5-chloro-2-(N-((1S,2S)-2-(2-fluoro-6-methylphenyl)-1-(5-oxo-4,5-dihydro-1,3,4-oxadiazol-2-yl)propyl)sulfamoyl)benzainide]
150 nM | Cc1c(Cl)ccc(F)c1[C@@H](C)[C@H](NS(=O)(=O)c1ccc(Br)cc1C(N)=O)c1n[nH]c(=O)o1 [Example 25, 5-bromo-2-(N-((1S,2R)-2-(3-chloro-6-fluoro-2-methylphenyl)-1-(5-oxo-4,5-dihydro-1,3,4-oxadiazol-2-yl)propyl)sulfamoyl)benzamide]
